Assay results published in patent publication US5580549A, “External preparation for skin” (priority 1992, dated 1996).

What was measured:
human skin [1] = experiment: Examination for bleaching effect (lotion applied to sunlight-exposed skin, depression effect to the chromatosis); assay type: in vivo; details: for bleaching effect: lotion with 1.0 wt % sample, each morning and evening, 8 weeks, 10 subjects per group; for improvement of bleaching effect by added ingredient (in words): added to preparation including 2-hydroxy alkoxybenzoic acid
Description: (2) E[…] BLEACHING EFFECT
Lotions were prepared by the following formula, using each sample. Namely, the alcohol phase and aqueous phase according to the following formula were prepared respectively, and both phases were mixed and dissolved according to an ordinal method. […]
______________________________________
Polyoxyethylene (25 moles) hydrogenated castor
Sodium hexametaphosphorate
Ion exchanged water balance
10 subjects for each group were exposed to sunlight in summer for 4 hours (2 hours×2 days). The lotion was applied to the facial skin of medialis brachii once each morning and evening […] after the day exposed to the sunlight for 8 weeks. After the application period, depression effect to the chromatosis which was caused by the ultraviolet irradiation was examined and evaluated, the degree of which was based on The following standard.
.circleincircle.: The number of the subjects who judged the result was "extremely effective" or "effective" were equal to or more than eight (Equal to or more than 80%).
.largecircle.: The number of the subjects who judged the result was "extremely effective" or "effective" were five to seven (from 50% less than 70%)
Δ: The number of the subjects who judged the result was "extremely effective" or "effective" were three to four (from 30% less than 40%)
×: The number of the subjects who judged the result was "extremely effective" or "effective" were less than two (less than 20%)
The inhibition effect to the tyrosinase activity which is essential for producing the melanine and bleaching effect for human skin by the 2-hydroxy alkoxybenzoic acid were examined by using samples described in TABLE 1.
The investigation for improvement of bleaching effect by adding other ingredients were carried out as described below.
Namely, the 2-hydroxy-3-methoxybenzoic acid as the 2-hydroxy alkoxy benzoic acid and sodium hyaluronate as the acid mucopolysaccharide were used for the examination of improvement of bleaching effect.
Lotions for the examination were prepared by adding 0.5 weight % of 2-hydroxy-3-methoxybenzoic acid into the alcohol phase and sodium hyaluronate into the aqueous phase of which the concentration as to be shown in TABLE 3.

mushroom tyrosinase = experiment: Examination for inhibition of tyrosinase activity (L-DOPA substrate, absorbance at 475 nm); assay type: biochemical; details: for IC50: L-DOPA substrate, pH 8.8 phosphate buffer, 1.5 minutes, room temperature, read-out: ID50 (inhibition of tyrosinase activity)
Description: (1) EXAMINATION FOR INHIBITION OF TYROSINASE ACTIVITY
10 mg L-DOPA (guaranteed reagent) is dissolved at the time of examination in 20 ml of phosphate buffer described in 3) below and prepared 0.05% L-DOPA solution.
3) 0.1-M phosphate buffer
The buffer was prepared at pH 8.8.
Preparation of sample solution
The sample described in TABLE 1 below are diluted by ethanol to the concentration with 3 standards.
The measurement of the tyrosinase activity was carried out by a modified method of Pomerantz, using L-DOPA (guaranteed reagent) as the substrate and measuring the absorbance at 475 nm at which the absorption of dihydroxyphenylalanine chrome (reaction product) exists.
Namely, 1.0 ml of the L-DOPA solution and 1.8 ml of the phosphate buffer were added in 0.1 ml of the sample solutions. 0.1 ml of tyrosinase solution was added and mixed for reaction for 1.5 minutes at room temperature. The absorbance at 475 nm was measured by using a spectrophotometer (type 220 A Spectrophotometer, HITACHI corporation) and the measured value was expressed by T.
Also, 1.0 ml of distilled water instead of the L-DOPA solution. 1.8 ml of the phosphate buffers and 0.1 ml of the sample solutions were mixed, operated in the same way above, measured the absorbance and obtained the value T' as a reagent blank of the sample.
0.1 ml of ethanol instead of the sample solutions was added to the mixture of 1.0 mo of the L-DOPA and 1.8 ml of phosphate buffers, operated in the same way above and obtained the value C as a control.
1.8 ml of phosphate buffers and 0.1 ml of ethanol were added to 1.0 ml of distilled water instead of L-DOPA solution, operated in the same way above and obtained the value C' as a reagent blank of the control.
Inhibition of tyrosinase activity in each sample concentration were obtained by the following formula. The result was described as semilog graph of which a logarithmic scale indicates concentration of the sample and another scale indicates inhibition ratio of the activity.
Incidentally, the values T, T', C, and C' were measured three times and averages were used for the calculation.
Inhibition of tyrosinase activity (%)=100×[1-(T-T')/(C-C')]

Stability of the samples = details: TABLE 1 and TABLE 2; symbols not defined
human skin [2] = details: stated as known; cited from earlier work

IC50 (mushroom tyrosinase) [mM] | stability (Stability of the samples) | Molecule | bleaching effect (human skin [1]) | further results
21 | .smallcircle. | COc1cccc(C(=O)O)c1O [Example 1, 2-hydroxy-3-methoxybenzoic acid] | .circleincircle. (The number of the subjects who judged the result was "extremely effective" or "effective" were equal to or more than eight (Equal to or more than 80%)) | –
4.5 | .smallcircle. | COc1ccc(O)c(C(=O)O)c1 [Example 3, 2-hydroxy-5-methoxybenzoic acid] | .circleincircle. (The number of the subjects who judged the result was "extremely effective" or "effective" were equal to or more than eight (Equal to or more than 80%)) | –
2 | .smallcircle. | CCOc1ccc(C(=O)O)c(O)c1 [Example 4, 2-hydroxy-4-ethoxybenzoic acid] | .circleincircle. (The number of the subjects who judged the result was "extremely effective" or "effective" were equal to or more than eight (Equal to or more than 80%)) | –
– | – | Cc1cccc(C(=O)O)c1O [Example 5, 2-hydroxy-3-methylbenzoic acid] | .circleincircle. (The number of the subjects who judged the result was "extremely effective" or "effective" were equal to or more than eight (Equal to or more than 80%)) | –
– | .smallcircle. | Cc1ccc(C(=O)O)c(O)c1 [Example 6, 2-hydroxy-4-methylbenzoic acid] | .circleincircle. (The number of the subjects who judged the result was "extremely effective" or "effective" were equal to or more than eight (Equal to or more than 80%)) | –
– | .smallcircle. | CCc1ccc(C(=O)O)c(O)c1 [Example 8, 2-hydroxy-4-ethylbenzoic acid] | .circleincircle. (The number of the subjects who judged the result was "extremely effective" or "effective" were equal to or more than eight (Equal to or more than 80%)) | –
0.3 | – | O=C1O[C@H]([C@@H](O)CO)C(O)=C1O [c, ascorbic acid, reference compound] | .smallcircle. | bleaching effect (in words) (human skin [1]; in vivo): rather low level; inhibition of tyrosinase activity (in words) (mushroom tyrosinase): high inhibition effect
– | – | O=C(O)CN(CCN(CC(=O)O)CC(=O)O)CC(=O)O [disodium ethylenediamine tetraacetate] | – | improvement of bleaching effect by added ingredient (in words) (human skin [1]): excellent improvement effect of bleaching
– | – | CCOC(=O)c1ccc(O)cc1 [ethyl p-hydroxybenzoate] | – | improvement of bleaching effect by added ingredient (in words) (human skin [1]): excellent improvement effect of bleaching
– | – | COC(=O)c1ccc(O)cc1 [methyl p-hydroxybenzoate] | – | improvement of bleaching effect by added ingredient (in words) (human skin [1]): excellent improvement effect of bleaching
– | – | COc1ccc(C(=O)[O-])c(O)c1.[K+] [potassium 2-hydroxy-4-methoxybenzoate] | – | subjects who judged the effect was "extremely effective" or "effective" (human skin [1]; bleaching effect examination, lotion): 80%
– | – | CC(=O)Oc1c(C)c(C)c2c(c1C)CCC(C)(CCC[C@H](C)CCC[C@H](C)CCCC(C)C)O2 (some centres unmarked) [tocopherol acetate] | – | improvement of bleaching effect by added ingredient (in words) (human skin [1]): excellent improvement effect of bleaching
– | – | sodium hyaluronate | – | improvement of bleaching effect by added ingredient (in words) (human skin [1]): extremely improved

Molecule | IC50 (mushroom tyrosinase) [mM] | stability (Stability of the samples) | bleaching effect (human skin [1]) | further results
COc1ccc(C(=O)O)c(O)c1 [Example 2, 2-hydroxy-4-methoxybenzoic acid] | 1 | – | .circleincircle. (The number of the subjects who judged the result was "extremely effective" or "effective" were equal to or more than eight (Equal to or more than 80%)) | –
Cc1ccc(O)c(C(=O)O)c1 [Example 7, 2-hydroxy-5-methylbenzoic acid] | – | .smallcircle. | .circleincircle. (The number of the subjects who judged the result was "extremely effective" or "effective" were equal to or more than eight (Equal to or more than 80%)) | –
Oc1ccc(O)cc1 [a, hydroquinone, reference compound] | 4.2 | – | Δ (The number of the subjects who judged the result was "extremely effective" or "effective" were three to four (from 30% less than 40%)) | side effect (known) (human skin [2]): have side effect
O=C(O)c1cc(O)ccc1O [b, gentisic acid, reference compound] | 13.6 | Δ | Δ (The number of the subjects who judged the result was "extremely effective" or "effective" were three to four (from 30% less than 40%)) | side effect (known) (human skin [2]): have side effect
